# What was measured:
# [1] = system: confluent Caco-2 cell layers; test: Transport of nutrients and bisphosphonates through confluent Caco-2 cell layers in two-compartment transport system, in presence of sphingolipid; format: in vitro ADME, human; details: for Transport velocity of testosterone / Velocity measured/Control velocity, testosterone: nutrient testosterone 10 μM
# Description: GlySar, mannitol, testosterone, caffeine and cholesterol were tested at a concentration of 10 μM. This concentration was reached by mixing “cold” and radioactively labeled test substrate (mannitol, testosterone and cholesterol) or by testing the radioactively labeled substrate alone (GlySar and caffeine).
# In general, the experiments were carried out in the presence and in the absence of 0.03 wt. % of bile. If bile was used in an experiment, this is explicitly stated in the results.
# For the present transport studies, Caco-2 cells (passage 34) were seeded on semi-permeable filter inserts (12-well Transwell™ plates, 0.4 μm pores, Corning Costar) at 100,000 cells.per filter (growth surface 1.13 cm^2 containing 2.5 ml of culture medium). The number of cells was counted using a Bürker-Türk count chamber. The cells on the inserts were grown for 21 days at 37° C. in a humidified incubator in an atmosphere of air containing 5% of CO2. During such a culture period, the cells undergo an enterocyte-like differentiation.
# Three filter inserts were used per experimental group.
# The radioactivity in all samples was determined as DPM (disintegrations per minute), using an LKB/Wallac S1409 scintillation counter. The amount of radioactivity was determined in the 100-μl samples of the dose compartments and in the 500-μl samples of the receptor compartments.
# In the experiments whose results are shown in Table 1, phytosphingosine was added as 0.02 wt. % (0.6 μM), ceramide III as 0.02 wt. % (0.3 μM), lysosphingomyelin as 0.008 wt. % (0.2 μM), sphinganine as 0.02 wt. % (0.6 μM) sphingosine as 0.02 wt. % (0.6 μM), egg sphingomyelin as 0.02 wt. % (0.3 μM) and glucosylceramide III as 0.02 wt. % (0.3 μM).
# [2] = system: Caco-2 cell monolayers
# Description: After 21 days of cell culture, the transepithelial electrical resistance (TEER) of the monolayers was used to check on the growth and differentiation of the Caco-2 cells on the filters (Duizer et al., J. Contr. Release 49: 39-49, 1997). The TEER is a measure for the differentiation status of the monolayer and was measured by means of the Millicell-ERS epithelial volt ohm meter (Millipore Co., Bedford, USA). Only monolayers having a TEER higher than 500 Ω.cm^−2 were used in the transport experiments.
# Three filter inserts were used per experimental group. The integrity of all monolayers of Caco-2 cells used in this study was determined by measuring the transepithelial electrical resistance (TEER).
# [3] = system: Caco-2 cell layers; test: Transport of the lipids themselves from apical to basolateral side of Caco-2 cell layer; details: 19 μg/ml lysosphingomyelin or 16.6 μg/ml phytosphingosine added to apical compartment
# Description: The effect on transport and the transport of lipids was tested with 0.02 wt. % in transport medium (except for lysosphingomyelin and cerebroside, of which 0.008 wt. % and 0.01 wt. %, respectively, were used). Stock solutions of the test compounds were prepared in ethanol. The stock solutions were diluted in transport medium to a final concentration of 2% (v/v) ethanol in transport medium.
# The culture medium was removed from the filter inserts (apical compartment) and from under the filter inserts (basolateral compartment). The inserts were washed using phosphate-buffered saline (PBS) and were moved to a new 12-well plate, whose wells had been filled with 1.8 ml of transport medium (DMEM without phenol red, non-essential amino acids (1% v/v), L-glutamine (2 mM) and gentamicin (50 μg/ml)). The transport study was started by filling the apical chamber with 600 μl of the dosed solution. A sample of 100 μl from the apical compartment was collected directly after administration of the dosage. The 12-well plate with the filter inserts was incubated on a rotating platform (60 rpm) in a humidified incubator at 37° C. under an atmosphere of 5% of CO2 in air. Samples (500 μl) from the basolateral compartment were collected at 15, 30, 60 and 120 min after the start of the transport study. […]
# [4] = bisphosphonate EB1053 10 μM, no bile, lysosphingomyelin 0.008 wt. %
# [5] = bisphosphonate EB1053 at 10× conc., no bile, lysosphingomyelin 0.008 wt. %
# [6] = bisphosphonate d-ADP 10 μM, no bile, lysosphingomyelin 0.008 wt. %
# [7] = bisphosphonate d-ADP at 10× conc., no bile, lysosphingomyelin 0.008 wt. %
# [8] = nutrient GlySar 10 μM, additive 0.03% bile, lysosphingomyelin 0.008 wt. %
# [9] = nutrient caffeine 10 μM, additive 0.03% bile, lysosphingomyelin 0.008 wt. %
# [10] = nutrient cholesterol 10 μM, additive 0.03% bile, test lipid 0.02 wt. % (lysosphingomyelin 0.008 wt. %)
# [11] = nutrient mannitol 10 μM, additive 0.03% bile, lysosphingomyelin 0.008 wt. %
# [12] = additive 0.03% bile, lysosphingomyelin 0.008 wt. %
# [13] = no bile, test lipid 0.02 wt. % (lysosphingomyelin 0.008 wt. %)
compound,measurement,setting,value
"CCCCCCCCCCCCC/C=C/[C@@H](O)[C@@H](N)COP(=O)([O-])OCC[N+](C)(C)C [lysosphingomyelin, sphingosyl-phosphorylcholine]",Transport velocity of EB1053,[1]; [4],371 ± 17 cm · hour^−1 × 10^−7
same,"Velocity measured/Control velocity, EB1053",[1]; [4],12.2
same,Transport velocity of EB1053 (10× conc.),[1]; [5],414 ± 13 cm · hour^−1 × 10^−7
same,"Velocity measured/Control velocity, EB1053 (10× conc.)",[1]; [5],12.1
same,Transport velocity of d-ADP,[1]; [6],922 ± 10 cm · hour^−1 × 10^−7
same,"Velocity measured/Control velocity, d-ADP",[1]; [6],4.9
same,Transport velocity of d-ADP (10× conc.),[1]; [7],498 ± 8 cm · hour^−1 × 10^−7
same,"Velocity measured/Control velocity, d-ADP (10× conc.)",[1]; [7],6.1
same,Increase of EB-1053 transport (times faster),[1]; in presence of 0.008% (w/v) lysosphingomyelin,12 times
same,Transport velocity of GlySar,[1]; [8],35.4 ± 2.4 cm · hour^−1 × 10^−7
same,"Velocity measured/Control velocity, GlySar",[1]; [8],1
same,Transport velocity of GlySar,"[1]; nutrient GlySar 10 μM, no bile, test lipid 0.02 wt. % (lysosphingomyelin 0.008 wt. %)",79.7 ± 28.1 cm · hour^−1 × 10^−7
same,Transport velocity of caffeine,[1]; [9],560 ± 29 cm · hour^−1 × 10^−7
same,"Velocity measured/Control velocity, caffeine",[1]; [9],1
same,Transport velocity of caffeine,"[1]; nutrient caffeine 10 μM, no bile, test lipid 0.02 wt. % (lysosphingomyelin 0.008 wt. %)",559 ± 38 cm · hour^−1 × 10^−7
same,Transport velocity of cholesterol,[1]; [10],1.25 (n = 1) cm · hour^−1 × 10^−7
same,"Velocity measured/Control velocity, cholesterol",[1]; [10],1
same,Transport velocity of mannitol,[1]; [11],12.3 ± 1.8 cm · hour^−1 × 10^−7
same,"Velocity measured/Control velocity, mannitol",[1]; [11],1
same,Transport velocity of mannitol,"[1]; nutrient mannitol 10 μM, no bile, test lipid 0.02 wt. % (lysosphingomyelin 0.008 wt. %)",120 ± 9 cm · hour^−1 × 10^−7
same,Transport velocity of testosterone,[1]; [12],576 ± 24 cm · hour^−1 × 10^−7
same,"Velocity measured/Control velocity, testosterone",[1]; [12],1
same,Transport velocity of testosterone,[1]; [13],536 ± 21 cm · hour^−1 × 10^−7
same,"Velocity measured/Control velocity, testosterone",[1]; [13],1
same,Resistance between the apical and basolateral liquids,[2],decrease
CCCCCCCCCCCCCC[C@@H](O)[C@@H](O)[C@@H](N)CO [phytosphingosine],Lipid still demonstrated in the apical liquid after 120 minutes,[3],12.9 µg/mL
same,Lipid in the basolateral liquids (apical to basolateral transport of lipid),[3]; 120 minutes,no lipids could be demonstrated
